Assay results published in US11420958B2, “Aryl and heteroaryl substituted indole compounds” (BRISTOL-MYERS SQUIBB COMPANY, priority 2017, dated 2022).

Assays:
Assay type in all cases: cell-based
human TLR7 = human TLR7 (Homo sapiens (Human), UniProt Q9NYK1); test: TLR7 inhibition reporter assay (HEK-Blue, SEAP); details: HEK-Blue cells overexpressing human TLR7, gardiquimod 7.5 μM stimulation
Procedure, shortened: (§1)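 Reporter cells, NF-κB/AP-1-driven SEAP; cmpd 0.05 nM–50 μM final, 30 min RT pre-treat; stim gardiquimod 7.5 μM (TLR7), R848 15.9 μM (TLR8), ODN2006 5 nM (TLR9); 22 h 37 °C; % inhibition of SEAP signal.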

human TLR8 = human TLR8 (Homo sapiens (Human), UniProt Q9NR97); test: TLR8 inhibition reporter assay (HEK-Blue, SEAP); details: HEK-Blue cells overexpressing human TLR8, R848 15.9 μM stimulation
Chain of human TLR8 (Q9NR97 27-1041): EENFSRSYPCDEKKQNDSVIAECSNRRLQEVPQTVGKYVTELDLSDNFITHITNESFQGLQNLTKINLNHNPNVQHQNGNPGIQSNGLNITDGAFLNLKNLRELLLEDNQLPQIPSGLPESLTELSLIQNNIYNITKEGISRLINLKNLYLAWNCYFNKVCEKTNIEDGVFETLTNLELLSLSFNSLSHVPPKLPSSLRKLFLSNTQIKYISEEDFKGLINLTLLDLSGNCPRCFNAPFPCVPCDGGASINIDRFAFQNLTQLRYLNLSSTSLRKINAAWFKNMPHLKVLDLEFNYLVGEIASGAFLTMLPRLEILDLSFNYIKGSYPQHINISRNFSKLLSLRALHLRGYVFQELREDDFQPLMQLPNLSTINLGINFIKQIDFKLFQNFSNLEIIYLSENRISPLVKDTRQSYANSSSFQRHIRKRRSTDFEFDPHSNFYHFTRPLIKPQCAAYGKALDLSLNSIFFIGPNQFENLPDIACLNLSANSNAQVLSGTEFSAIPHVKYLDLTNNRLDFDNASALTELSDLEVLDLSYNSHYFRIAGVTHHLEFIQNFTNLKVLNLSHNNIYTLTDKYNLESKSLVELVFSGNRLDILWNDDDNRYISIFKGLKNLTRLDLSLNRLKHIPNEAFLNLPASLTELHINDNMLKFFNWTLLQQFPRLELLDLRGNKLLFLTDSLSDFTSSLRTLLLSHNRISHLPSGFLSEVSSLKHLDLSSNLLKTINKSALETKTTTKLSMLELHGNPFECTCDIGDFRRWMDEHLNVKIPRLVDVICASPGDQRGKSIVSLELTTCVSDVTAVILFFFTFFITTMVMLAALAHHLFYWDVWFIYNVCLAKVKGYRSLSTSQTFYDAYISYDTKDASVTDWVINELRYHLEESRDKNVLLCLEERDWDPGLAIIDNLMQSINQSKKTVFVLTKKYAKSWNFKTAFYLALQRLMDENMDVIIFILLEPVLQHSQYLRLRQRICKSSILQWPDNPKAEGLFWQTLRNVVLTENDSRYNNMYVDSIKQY
Procedure, shortened: as §1

human TLR9 = human TLR9 (Homo sapiens (Human), UniProt Q9NR96); test: TLR9 inhibition reporter assay (HEK-Blue, SEAP); details: HEK-Blue cells overexpressing human TLR9, ODN2006 5 nM stimulation
Chain of human TLR9 (Q9NR96 26-1032): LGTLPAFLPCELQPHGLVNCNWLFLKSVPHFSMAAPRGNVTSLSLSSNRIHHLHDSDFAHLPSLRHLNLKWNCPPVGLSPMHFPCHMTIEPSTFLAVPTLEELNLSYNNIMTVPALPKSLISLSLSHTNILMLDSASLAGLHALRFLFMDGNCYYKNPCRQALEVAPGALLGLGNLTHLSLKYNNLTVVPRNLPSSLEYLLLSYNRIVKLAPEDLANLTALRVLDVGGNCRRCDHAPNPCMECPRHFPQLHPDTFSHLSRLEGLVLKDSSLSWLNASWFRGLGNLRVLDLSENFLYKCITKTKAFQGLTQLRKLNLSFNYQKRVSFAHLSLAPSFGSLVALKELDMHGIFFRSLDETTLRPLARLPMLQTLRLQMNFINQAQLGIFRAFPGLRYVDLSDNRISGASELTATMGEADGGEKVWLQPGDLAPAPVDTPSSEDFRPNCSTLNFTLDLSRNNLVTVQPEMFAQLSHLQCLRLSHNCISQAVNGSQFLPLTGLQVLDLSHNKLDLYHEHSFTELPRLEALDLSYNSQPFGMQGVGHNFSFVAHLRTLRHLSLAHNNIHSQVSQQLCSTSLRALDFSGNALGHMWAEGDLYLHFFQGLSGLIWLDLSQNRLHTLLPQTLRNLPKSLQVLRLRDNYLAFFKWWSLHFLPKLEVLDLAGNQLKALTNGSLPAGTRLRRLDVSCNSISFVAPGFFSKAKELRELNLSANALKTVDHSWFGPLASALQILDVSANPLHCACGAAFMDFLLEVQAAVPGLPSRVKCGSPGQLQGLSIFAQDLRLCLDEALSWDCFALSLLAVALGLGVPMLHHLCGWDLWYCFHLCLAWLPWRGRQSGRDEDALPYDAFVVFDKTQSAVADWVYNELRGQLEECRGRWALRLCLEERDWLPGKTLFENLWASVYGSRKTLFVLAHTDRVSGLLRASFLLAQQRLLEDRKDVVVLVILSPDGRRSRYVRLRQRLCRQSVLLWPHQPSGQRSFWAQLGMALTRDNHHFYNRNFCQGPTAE
Procedure, shortened: as §1

Chain of human TLR7 (Q9NYK1 27-1049): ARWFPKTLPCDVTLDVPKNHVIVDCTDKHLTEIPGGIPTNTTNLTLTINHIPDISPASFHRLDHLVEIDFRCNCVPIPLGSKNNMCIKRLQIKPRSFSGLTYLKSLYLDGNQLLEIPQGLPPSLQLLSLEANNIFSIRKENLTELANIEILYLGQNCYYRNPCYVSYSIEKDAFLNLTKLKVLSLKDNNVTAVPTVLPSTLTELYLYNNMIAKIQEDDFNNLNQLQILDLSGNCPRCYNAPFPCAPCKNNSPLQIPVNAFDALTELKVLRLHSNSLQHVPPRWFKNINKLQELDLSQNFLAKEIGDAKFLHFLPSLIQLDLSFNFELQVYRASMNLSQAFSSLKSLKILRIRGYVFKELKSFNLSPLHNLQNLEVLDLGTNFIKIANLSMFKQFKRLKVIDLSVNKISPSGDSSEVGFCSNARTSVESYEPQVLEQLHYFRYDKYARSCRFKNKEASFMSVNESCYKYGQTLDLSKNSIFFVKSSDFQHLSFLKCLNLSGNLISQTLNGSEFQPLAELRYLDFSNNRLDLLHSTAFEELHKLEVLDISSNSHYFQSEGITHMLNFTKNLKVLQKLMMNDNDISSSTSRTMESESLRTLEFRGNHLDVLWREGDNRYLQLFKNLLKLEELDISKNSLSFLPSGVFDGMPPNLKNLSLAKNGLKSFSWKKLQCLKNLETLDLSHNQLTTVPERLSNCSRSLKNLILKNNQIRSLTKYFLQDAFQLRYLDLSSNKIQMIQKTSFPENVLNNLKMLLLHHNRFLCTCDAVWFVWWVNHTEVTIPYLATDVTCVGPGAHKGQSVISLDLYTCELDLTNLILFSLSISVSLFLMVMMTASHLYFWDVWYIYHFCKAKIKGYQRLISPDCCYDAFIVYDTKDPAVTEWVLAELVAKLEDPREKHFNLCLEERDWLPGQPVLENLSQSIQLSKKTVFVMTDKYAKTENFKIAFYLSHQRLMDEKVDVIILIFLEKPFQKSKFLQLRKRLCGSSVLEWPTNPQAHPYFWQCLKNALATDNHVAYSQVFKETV

| Structure (SMILES) | IC50 (human TLR7) [µM] | IC50 (human TLR8) [µM] | IC50 (human TLR9) [µM] |
| --- | --- | --- | --- |
| Cc1cc(-c2[nH]c3ccc(-c4ccc(C(=O)N5CCC(NC(C)C)CC5)cc4)cc3c2C(C)C)ccn1 [Example 321, (4-(3-isopropyl-2-(2-methylpyridin-4-yl)-1H-indol-5-yl)phenyl)(4-(isopropylamino)piperidin-1-yl)methanone] | 0.037 | 0.017 | 0.739 |
| Cc1cc(-c2[nH]c3ccc(-c4ccc(CO)nc4)cc3c2C(C)C)cc(C)n1 [Example 322, (5-(2-(2,6-dimethylpyridin-4-yl)-3-isopropyl-1H-indol-5-yl)pyridin-2-yl)methanol] | 0.013 | 0.027 | 45.7 |
| Cc1cc(-c2[nH]c3ccc(-c4nnc(C5CCCNC5)[nH]4)cc3c2C(C)C)cc(C)n1 (stereo not drawn) [Example 323, 2-(2,6-dimethylpyridin-4-yl)-3-isopropyl-5-(5-(piperidin-3-yl)-4H-1,2,4-triazol-3-yl)-1H-indole] | 0.013 | 0.01 | 0.322 |
| Cc1cc(-c2[nH]c3ccc(-c4cc5c(s4)CNCC5)cc3c2C(C)C)cc(C)n1 [Example 324, 2-(2-(2,6-dimethylpyridin-4-yl)-3-isopropyl-1H-indol-5-yl)-4,5,6,7-tetrahydrothieno[2,3-c]pyridine] | 0.0026 | 0.0012 | 0.438 |
| Cc1cc(-c2[nH]c3ccc(-c4cc5c(s4)CN(C(C)C)CC5)cc3c2C(C)C)cc(C)n1 [Example 325, 2-(2-(2,6-dimethylpyridin-4-yl)-3-isopropyl-1H-indol-5-yl)-6-isopropyl-4,5,6,7-tetrahydrothieno[2,3-c]pyridine] | 0.011 | 0.0005 | 0.282 |
| Cc1cc(-c2[nH]c3ccc(-c4ccnc(N5CCN(C(C)C)CC5)c4)cc3c2C(C)C)cc(C)n1 [Example 326, 2-(2,6-dimethylpyridin-4-yl)-3-isopropyl-5-(2-(4-isopropylpiperazin-1-yl)pyridin-4-yl)-1H-indole] | 0.023 | 0.013 | 0.303 |
| Cc1cc(-c2[nH]c3ccc(-c4nnc(C5CCCN(C(C)C)C5)o4)cc3c2CC(F)F)cc(C)n1 (stereo not drawn) [Example 327, 2-(3-(2,2-difluoroethyl)-2-(2,6-dimethylpyridin-4-yl)-1H-indol-5-yl)-5-(1-isopropylpiperidin-3-yl)-1,3,4-oxadiazole] | 0.026 | 0.01 | 0.216 |
| Cc1cc(-c2[nH]c3ccc(-c4nnc(C5CCCN(C(C)C)C5)o4)cc3c2CC(F)F)cc(C)n1 (stereo not drawn) [Example 328, 2-(3-(2,2-difluoroethyl)-2-(2,6-dimethylpyridin-4-yl)-1H-indol-5-yl)-5-(1-isopropylpiperidin-3-yl)-1,3,4-oxadiazole] | 0.048 | 0.03 | 0.206 |
| Cc1cc(-c2[nH]c3ccc(-c4nc5c(s4)CCN(CC(=O)N(C)C)C5)cc3c2C(C)C)cc(C)n1 [Example 329, 2-(2-(2-(2,6-dimethylpyridin-4-yl)-3-isopropyl-1H-indol-5-yl)-6,7-dihydrothiazolo[4,5-c]pyridin-5(4H)-yl)-N,N-dimethylacetamide] | 0.02 | 0.0033 | 46.7 |
| CNC(=O)CN1CCc2cc(-c3ccc4[nH]c(-c5cc(C)nc(C)c5)c(C(C)C)c4c3)sc2C1 [Example 330, 2-(2-(2-(2,6-dimethylpyridin-4-yl)-3-isopropyl-1H-indol-5-yl)-4,7-dihydrothieno[2,3-c]pyridin-6(5H)-yl)-N-methylacetamide] | 0.023 | 0.016 | 2.21 |
| CNCC(=O)N1CCc2cc(-c3ccc4[nH]c(-c5cc(C)nc(C)c5)c(C(C)C)c4c3)sc2C1 [Example 331, 1-(2-(2-(2,6-dimethylpyridin-4-yl)-3-isopropyl-1H-indol-5-yl)-4,7-dihydrothieno[2,3-c]pyridin-6(5H)-yl)-2-(methylamino)ethan-1-one] | 0.0052 | 0.0049 | 0.945 |
